The text below walks through data of US8809348B2, “6-arylmethyl substituted pyrazolo[3,4-d]pyrimidines” (Boehringer Ingelheim International GmbH, priority 2003, dated 2014).

Counter-ions that a name gives are not always drawn.

Test system in one series: not given
Assay: not given
Details: not given
`O=c1[nH]c(Cc2cccc(Cl)c2)nc2c1cnn2-c1ccccc1C(F)(F)F` (as salt: sodium) [Example 19, 6-(3-Chlorobenzyl)-1-(2-trifluoromethylphenyl)-1,5-dihydro-4H-pyrazolo[3,4-d]pyrimidin-4-one]: the melting point – broadly, the temperature, or range, at which the solid turns liquid – worked out at 152 °C.
For the molecule `COc1ccccc1-n1ncc2c(=O)[nH]c(Cc3cccc(Cl)c3)nc21` (as salt: sodium) [Example 23, 6-(3-Chlorobenzyl)-1-(2-methoxyphenyl)-1,5-dihydro-4H-pyrazolo[3,4-d]pyrimidin-4-one], the melting point amounted to 196 °C.
Turning to `Cc1ccccc1-n1ncc2c(=O)[nH]c(Cc3ccccn3)nc21` (as salt: sodium) [Example 17, 1-(2-Methylphenyl)-6-(2-pyridinylmethyl)-1,5-dihydro-4H-pyrazolo[3,4-d]pyrimidin-4-one], the melting point came to 162 °C.
`O=c1[nH]c(Cc2cccc(Cl)c2)nc2c1cnn2-c1ccccc1F` (as salt: sodium) [Example 20, 6-(3-Chlorobenzyl)-1-(2-fluorophenyl)-1,5-dihydro-4H-pyrazolo[3,4-d]pyrimidin-4-one] yielded a melting point of 197 °C.
Still for that read-out and setting: next, `O=c1[nH]c(Cc2cccc(Cl)c2)nc2c1cnn2-c1ccccn1` (as salt: sodium) [Example 22, 6-(3-Chlorobenzyl)-1-(2-pyridinyl)-1,5-dihydro-4H-pyrazolo[3,4-d]pyrimidin-4-one]: 230 °C; `CCc1ccccc1-n1ncc2c(=O)[nH]c(Cc3cccc(Cl)c3)nc21` (as salt: sodium) [Example 18, 6-(3-Chlorobenzyl)-1-(2-ethylphenyl)-1,5-dihydro-4H-pyrazolo[3,4-d]pyrimidin-4-one]: 208 °C.
`Cc1ccccc1-n1ncc2c(=O)[nH]c(Cc3cccc(Cl)c3)nc21` (as salt: sodium) [Example 16, 6-(3-Chlorobenzyl)-1-(2-methylphenyl)-1,5-dihydro-4H-pyrazolo[3,4-d]pyrimidin-4-one] came in with a melting point of 215 °C.
In turn, `O=c1[nH]c(Cc2cccc(Cl)c2)nc2c1cnn2-c1ccccc1Cl` (as salt: sodium) [Example 21, 6-(3-Chlorobenzyl)-1-(2-chlorophenyl)-1,5-dihydro-4H-pyrazolo[3,4-d]pyrimidin-4-one] gave a melting point of 188 °C.

The target of a further series is T1, PDE9A (Homo sapiens, UniProt O76083).
T1 sequence (O76083 whole entry): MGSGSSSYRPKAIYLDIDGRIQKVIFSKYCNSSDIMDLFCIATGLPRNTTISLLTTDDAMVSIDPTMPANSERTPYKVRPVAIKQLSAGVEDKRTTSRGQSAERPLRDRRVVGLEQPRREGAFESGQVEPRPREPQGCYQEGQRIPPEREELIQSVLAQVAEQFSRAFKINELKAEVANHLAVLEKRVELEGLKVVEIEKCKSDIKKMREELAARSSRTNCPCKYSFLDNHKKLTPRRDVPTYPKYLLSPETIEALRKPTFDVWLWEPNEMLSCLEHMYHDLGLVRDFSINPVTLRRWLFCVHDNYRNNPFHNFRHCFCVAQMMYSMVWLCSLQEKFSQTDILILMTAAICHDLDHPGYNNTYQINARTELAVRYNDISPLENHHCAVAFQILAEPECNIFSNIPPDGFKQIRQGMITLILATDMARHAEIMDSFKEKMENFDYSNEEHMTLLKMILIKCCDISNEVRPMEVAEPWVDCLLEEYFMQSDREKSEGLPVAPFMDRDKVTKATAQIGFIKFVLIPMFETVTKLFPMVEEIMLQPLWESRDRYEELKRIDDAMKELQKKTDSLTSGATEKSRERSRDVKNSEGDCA
Assay: not given
Particulars: concentrations of up to 100 μM; cited from earlier work.
Consider `COc1ccc(C2CNC(=O)C2)cc1OC1CCCC1` (stereo not drawn) [rolipram], for which the “inhibition on the isolated enzyme” value is “no inhibition”.
Consider `CC(=O)Nc1ccc(-c2c[nH]c(=O)cn2)cc1` [SKF94120], for which the “inhibition on the isolated enzyme” value is “no inhibition”.
On to `OCCN(CCO)c1nc(N2CCCCC2)c2nc(N(CCO)CCO)nc(N3CCCCC3)c2n1` [dipyridamole], for which the “inhibition on the isolated enzyme” value is on record as “no inhibition”.
With `CC(C)Cn1c(=O)n(C)c(=O)c2[nH]cnc21` [IBMX], the “inhibition on the isolated enzyme” value is “no inhibition”.
`CCOC(=O)C1=C[C@]2(CC)CCCN3CCc4c(n1c1ccccc41)[C@@H]32` [vinpocetine]: the “inhibition on the isolated enzyme” value is given as “no inhibition”.

The next series deals with T2, Murine PDE9A (Mus musculus, UniProt O70628).
T2 sequence (O70628 1-534): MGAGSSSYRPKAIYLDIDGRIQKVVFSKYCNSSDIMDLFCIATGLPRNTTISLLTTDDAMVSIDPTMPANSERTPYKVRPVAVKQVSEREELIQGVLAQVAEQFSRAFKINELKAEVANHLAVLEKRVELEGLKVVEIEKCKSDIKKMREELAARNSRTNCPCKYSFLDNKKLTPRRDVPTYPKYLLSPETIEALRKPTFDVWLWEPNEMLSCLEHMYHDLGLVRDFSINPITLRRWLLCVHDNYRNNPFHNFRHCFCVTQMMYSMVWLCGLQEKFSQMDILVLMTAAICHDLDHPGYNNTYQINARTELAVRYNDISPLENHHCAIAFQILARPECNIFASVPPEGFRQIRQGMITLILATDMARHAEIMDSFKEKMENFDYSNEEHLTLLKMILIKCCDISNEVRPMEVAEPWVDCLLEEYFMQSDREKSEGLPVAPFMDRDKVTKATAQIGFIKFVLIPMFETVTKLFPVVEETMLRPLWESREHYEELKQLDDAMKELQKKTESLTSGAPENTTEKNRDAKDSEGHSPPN
Assay: not given
Conditions: concentrations below 200 μM; cited from earlier work.
As for `CC(C)Cn1c(=O)n(C)c(=O)c2[nH]cnc21` [IBMX], the “inhibition of murine PDE9A” value is listed as “not inhibited”.

A further series concerns the target T1, PDE9A. Put plainly: PDE inhibition: recombinant PDE9A scintillation proximity assay. It is filed as biochemical. The arrangement: made in house; host or cells: Sf9 cells (pFASTBAC baculovirus expression system). Particulars: inhibiting effect on PDE9A, recombinant enzyme expressed in Sf9 cells, [8-3H]cGMP substrate. From the text: Recombinant PDE1C (GenBank/EMBL Accession Number: NM_005020, Loughney et al. J. Biol. Chem. 1996 271, 796-806), PDE2A (GenBank/EMBL Accession Number: NM_002599, Rosman et al. Gene 1997 191, 89-95), PDE3B (GenBank/EMBL Accession Number: NM_000922, Miki et al. Genomics 1996, 36, 476-485), PDE4B (GenBank/EMBL Accession Number: NM_002600, Obernolte et al. Gene. 1993, 129, 239-247), PDE5A (GenBank/EMBL Accession Number: NM_001083, Loughney et al. Gene 1998, 216, 139-147), PDE7B (GenBank/EMBL Accession Number: NM_018945, Hetman et al. Proc. Natl. Acad. Sci. U.S.A. 2000, 97, 472-476), PDE8A (GenBank/EMBL Accession Number: AF 056490, Fisher et al. Biochem. Biophys. Res. Commun. 1998 246, 570-577), PDE9A (Fisher et al., J. Biol. Chem., 1998, 273 (25): 15559-15564), E10A (GenBank/EMBL Accession Number: NM_06661, Fujishige et al. J Biol Chem. 1999, 274, 18438-45), PDE11A (GenBank/EMBL Accession Number: NM_016953, Fawcett et al. Proc. Natl. Acad. Sci. 2000, 97, 3702-3707) were expressed in Sf9 cells with the aid of the pFASTBAC baculovirus expression system (GibcoBRL).
The test substances are dissolved in 100% DMSO and serially diluted to determine their in vitro effect on PDE 9A. Typically, serial dilutions from 200 μM to 1.6 μM are prepared (resulting final concentrations in the assay: 4 μM to 0.032 μM). 2 μL portions of the diluted substance solutions are introduced into the wells of microtiter plates (Isoplate; Wallac Inc., Atlanta, Ga.). Then 50 μL of a dilution of the PDE9A preparation described above are added. The dilution of the PDE9A preparation is chosen so that less than 70% of the substrate is converted during the subsequent incubation (typical dilution: 1:10000; dilution buffer: 50 mM Tris/HCl pH 7.5, 8.3 mM MgCl2, 1.7 mM EDTA, 0.2% BSA). The substrate, [8-^3H] guanosine 3′,5′-cyclic phosphate (1 μCi/μL; Amersham Pharmacia Biotech., Piscataway, N.J.) is diluted 1:2000 with assay buffer (50 mM Tris/HCl pH 7.5, 8.3 mM MgCl2, 1.7 mM EDTA) to a concentration of 0.0005 μCi/μL. The enzyme reaction is finally started by adding 50 μL (0.025 μCi) of the diluted substrate. The assay mixtures are incubated at room temperature for 60 min and the reaction is stopped by adding 25 μl of a PDE9A inhibitor (e.g. the inhibitor from preparation example 1, final concentration 10 μM) dissolved in assay buffer. Immediately thereafter, 25 μL of a suspension containing 18 mg/mL Yttrium Scintillation Proximity Beads (Amersham Pharmacia Biotech., Piscataway, N.J.) are added. […] The plates are then measured for 30 s per well in a Microbeta scintillation counter (Wallac Inc., Atlanta, Ga.). IC50 values are determined from the graphical plot of the substance concentration versus the percentage inhibition. […]
Background: Scintillation proximity formats need no separation of bound from free tracer.
Consider `Cc1ccccc1-n1ncc2c(=O)[nH]c(Cc3ccccc3Br)nc21` [Example 9, 6-(2-Bromobenzyl)-1-(2-methylphenyl)-1,5-dihydropyrazolo[3,4-d]pyrimidin-4-one], for which the IC50 (as a rule, the midpoint of a concentration-inhibition curve) was < 30 nM.
On the same count and under the same terms, the same measure for `Cc1cccc(-n2ncc3c(=O)[nH]c(Cc4cccc(Cl)c4)nc32)c1C` [Example 2, 6-(3-Chlorobenzyl)-1-(2,3-dimethylphenyl)-1,5-dihydropyrazolo[3,4-d]pyrimidin-4-one]: 50 nM.
Same read-out and setting: next, `O=c1[nH]c(Cc2cccc(Cl)c2)nc2c1cnn2-c1ccccc1Cl` [Example 21, 6-(3-Chlorobenzyl)-1-(2-chlorophenyl)-1,5-dihydro-4H-pyrazolo[3,4-d]pyrimidin-4-one]: < 30 nM; `O=c1[nH]c(Cc2cccc(Cl)c2)nc2c1cnn2-c1c(Cl)cccc1Cl` [Example 4, 6-(3-Chlorobenzyl)-1-(2,6-dichlorophenyl)-1,5-dihydropyrazolo[3,4-d]pyrimidin-4-one]: 64 nM.
